Measurements published in patent US20180002400A1, “SHORT PEPTIDE-BASED THERAPEUTIC AGENT AND MEDICINAL COMPOSITION INCLUDING THE SAME FOR INHIBITING ACTIVITIES OF CANCER CELLS” (NATIONAL CHENG KUNG UNIVERSITY, priority 2015, published 2018).

What was measured:
Format in all cases: cell-based, human
[1] = test system: nasopharyngeal cancer HONE1 cell; assay: Cancer cell invasion (matrigel-coated insert) induced by euPTX3; conditions: HONE1 only co-cultured with euPTX3 2.5 μg/mL; FIG. 3C right panel
Procedure: (§1) The cell density 5×10^4 cells/well of the breast cancer MB231 cell, the lung cancer A549 cell and the nasopharyngeal cancer HONE1 cell were seeded into each upper insert of 24-well plate (containing 8-μm pore insert per well; BD Biosciences), the upper insert and the lower well were separated by the polyethelene terephthalate membrane coated with matrigel (purchased from BD Bioscience), and cultured for 3 hours.
(§2) Next, the medium in each upper insert was replaced by serum-free medium, and the medium in each lower well was added with the short peptides RI37, GI40, KT44 and the polypeptide euPTX3 and pPTX3/C of Example 1. The cells inside each upper insert were wiped with cotton swabs and removed after 16 hours of cultivation. Remaining cells that had migrated to the bottom of the insert membrane were stained by 4′, 6-diamidino-2-phenylindole (DAPI; Invitrogen) and calculated under fluorescence microscopy with 200-fold magnification.

lung cancer A549 cell [2] = assay: as above; conditions: A549 only co-cultured with euPTX3 2.5 μg/mL; FIG. 2C right panel
Procedure: as §1, §2

[3] = test system: nasopharyngeal cancer HONE1 cell; assay: Drug resistance (CDDP, 5-FU) induced by euPTX3, MTT assay; conditions: HONE1 only co-cultured with euPTX3 2.5 μg/mL vs without euPTX3; FIG. 3B
Procedure: (§3) The cell density 1×10^4 cells/well of the breast cancer MB231 cell, the lung cancer A549 cell and the nasopharyngeal cancer HONE1 cell were co-cultured with the short peptides RI37, GI40 and KT44 (10 μg/mL or 225 nM of the short peptide) and the polypeptide euPTX3 (2.5 μg/mL) of Example 1. After 1 week of cultivation, those cancer cells were added with 40 μM of CDDP or 100 μM of 5-FU respectively and cultured for 48 hours. Based on the cell viability of the cells only co-cultured with the polypeptide euPTX3 (2.5 μg/mL) as 100%, the influence of drug resistance of the cancer cells of Example 2 using the short peptides of Example 1 could be determined according to the aforementioned MTT assay.

lung cancer A549 cell [4] = assay: as above; conditions: A549 only co-cultured with euPTX3 2.5 μg/mL vs without euPTX3; FIG. 2B
Procedure: as §3

breast cancer MB231 cell = assay: as above; conditions: MB231 only co-cultured with euPTX3 2.5 μg/mL vs without euPTX3; FIG. 1D
Procedure: as §3

[5] = test system: drug-resistant breast cancer MB231R (MBR) cells; assay: Cancer cell invasion (matrigel-coated insert) induced by euPTX3
[6] = test system: nasopharyngeal cancer HONE1 cell; assay: Cancer cell migration (Boyden chamber) induced by euPTX3; conditions: HONE1 only co-cultured with euPTX3 2.5 μg/mL; FIG. 3C left panel
Procedure: (§4) The cell density 5×10^4 cells/well of the breast cancer MB231 cell, the lung cancer A549 cell and the nasopharyngeal cancer HONE1 cell were seeded into each upper insert of 24-well plate (containing 8-μm pore insert per well; BD Biosciences) for 19 hours, and each lower well was added with the short peptides RI37, GI40 and KT44 (10 μg/mL or 225 nM of the short peptide) and the polypeptide euPTX3 (2.5 μg/mL) of Example 1, for evaluating the influence of migration of the cancer cell of Example 2 using several short peptides of Example 1.
(§5) The cell density 5×10^4 cells/well of the breast cancer MB231 cell, the lung cancer A549 cell and the nasopharyngeal cancer HONE1 cell were seeded into each upper insert of Boyden chamber for 3 hours of cultivation.
as §2, with “And then,” for “Next,”, “euPTX3” for “euPTX3 and pPTX3/C”, “4′,6-diamidino-2-phenylindole” for “4′, 6-diamidino-2-phenylindole”

[7] = test system: drug-resistant breast cancer MB231R (MBR) cells; assay: as above
Procedure: [The procedure below names another cell line; the source lists this cell line under the same test.] as §4, §5
as §2, with “And then,” for “Next,”, “euPTX3” for “euPTX3 and pPTX3/C”, “4′,6-diamidino-2-phenylindole” for “4′, 6-diamidino-2-phenylindole”

lung cancer A549 cell [8] = assay: as above; conditions: A549 only co-cultured with euPTX3 2.5 μg/mL; FIG. 2C left panel
Procedure: as §4, §5
as §2, with “And then,” for “Next,”, “euPTX3” for “euPTX3 and pPTX3/C”, “4′,6-diamidino-2-phenylindole” for “4′, 6-diamidino-2-phenylindole”

Molecule | invasive cell numbers [1] | invasive cell numbers (lung cancer A549 cell [2]) | drug resistance to CDDP or 5-FU (cell viability) [3] | drug resistance to CDDP or 5-FU (cell viability) (lung cancer A549 cell [4]) | drug resistance to CDDP or 5-FU (cell viability) (breast cancer MB231 cell) | invasive cell numbers ([5]; breast cancer cells only co-cultured with euPTX3 2.5 μg/mL, FIG. 1E, 5B right panels) | migrated cell numbers [6] | migrated cell numbers ([7]; breast cancer cells only co-cultured with euPTX3 2.5 μg/mL, FIG. 1E, 5B left panels) | migrated cell numbers (lung cancer A549 cell [8]) | invasive cell numbers induced by the polypeptide euPTX3 ([5]; MB231R (MBR), identical molecular number: euPTX3 2.5 μg/mL, RI37 3.7 μg/mL, GI40 4 μg/mL, pPTX3/C 10 μg/mL, FIG. 5B right panel) | migrated cell numbers induced by the polypeptide euPTX3 ([7]; MB231R (MBR), identical molecular number: euPTX3 2.5 μg/mL, RI37 3.7 μg/mL, GI40 4 μg/mL, pPTX3/C 10 μg/mL, FIG. 5B left panel)
euPTX3: commercially available PTX3 product (R&D system Inc.), recombinant protein purified from mouse myeloma cells (NS0) | increase invasive cell numbers | increase invasive cell numbers | increase drug resistance to CDDP or 5-FU | increase drug resistance to CDDP or 5-FU | increase drug resistance to CDDP or 5-FU | increase invasive cell numbers | increase migrated cell numbers | increase migrated cell numbers | increase migrated cell numbers |  | 
pPTX3/C: recombinant protein (SEQ ID NO:4) expressed and purified from prokaryotic expression system (E. coli); control group (protein, The 180th amino acid to 381th amino acid of Human sapiens PTX3 (pPTX3/C), control group) ETAILFPMRSKKIFGSVHPVRPMRLESFSACIWVKATDVLNKTILFSYGTKRNPYEIQLYLSYQSIVFVVGGEENKLVAEAMVSLGRWTHLCGTWNSEEGLTSLWVNGELAATTVEMATGHIVPEGGILQIGQEKNGCCVGGGFDETLAFSGRLTGFNIWDSVLSNEEIRETGGAESCHIRGNIVGWGVTEIQPHGGAQYVS |  |  |  |  |  |  |  |  |  | can inhibit invasive cell numbers | can inhibit migrated cell numbers
